Target: T1, human recombinant A1 adenosine receptors (Homo sapiens, UniProt P30542)
T1 construct: expressed in transfected cells; host or cells: Chinese hamster ovary (CHO) cells, CHO:huA1, G-418 selected
T1 sequence (P30542 1-326): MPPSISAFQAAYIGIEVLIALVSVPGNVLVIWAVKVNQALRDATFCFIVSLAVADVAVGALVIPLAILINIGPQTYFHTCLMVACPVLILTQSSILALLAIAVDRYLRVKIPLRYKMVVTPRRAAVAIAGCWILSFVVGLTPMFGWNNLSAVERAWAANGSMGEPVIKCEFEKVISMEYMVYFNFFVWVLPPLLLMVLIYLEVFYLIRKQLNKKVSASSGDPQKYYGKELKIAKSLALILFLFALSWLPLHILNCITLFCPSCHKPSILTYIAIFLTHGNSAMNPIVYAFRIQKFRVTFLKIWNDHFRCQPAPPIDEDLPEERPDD
Experiment: Allosteric enhancement: reduction of cAMP content of CHO:huA1 cells (radioimmunoassay)
Format: cell-based
Details: forskolin 1 μM, rolipram 20 μM, CPA 0.01 nM, adenosine deaminase, 6 min at 36° C.; for inhibition at 0.01 µM / inhibition at 0.1 µM / inhibition at 1 µM / inhibition at 10 µM: 0.1 h, read-out: Change in cAMP Content from Control (mean + SEM)
Experimental: Chinese hamster ovary cells expressing human recombinant A1 adenosine receptors (CHO:huA1 cells) at a density of approximately 8000 fmol/mg protein were prepared as previously described (Kollias-Baker et al., (1997), J. Pharmacol. Exp. Ther. 281: 761–768) and aliquots of the cells at low passage numbers were frozen and stored in liquid nitrogen. When compounds were tested, an aliquot of CHO:huA1 cells were rapidly thawed after removal from liquid nitrogen, then grown in Ham's F12 culture medium with 10% fetal bovine serum and 0.5 mg/mL of antibiotic G-418 (Shryock, Ozeck, and Belardinelli (1998), Mol. Pharmacol 53: 886–893). Cells were passaged thrice weekly. Aliquots of cells were placed into 12-well plates with culture medium, serum, and antibiotic for 48 hours, by which time the cells had grown to a confluent monolayer.
Allosteric enhancement was measured as the action of a test compound at different concentrations (0.01, 0.1, 1 and 10 μM) to reduce the cAMP content of CHO:huA1 cells. To initiate an experiment, growth medium was removed from the 12-well plates and cells were washed once with warm Hanks' buffered saline. The wash solution was then removed and replaced with fresh Hanks' solution containing forskolin (1 μM), rolipram (20 μM), N^6-cyclopentyladenosine (CPA, 0.01 nM), adenosine deaminase (2 U/mL), and the test compound. Forskolin was used to stimulate the activity of adenylyl cyclase, rolipram to inhibit cAMP phosphodiesterase, adenosine deaminase to degrade endogenous adenosine, and CPA to cause a small increase of the number of activated adenosine receptors. After 6 min of incubation at 36° C. in the presence of test compound, the incubation solution was removed and hydrochloric acid (final concentration 50 mM) was added to terminate drug action.
The content of cAMP in acidified extracts of cells was determined by radioimmunoassay as previously described (Kollias-Baker et al., (1997), J. Pharmacol. Exp. Ther. 281: 761–768). Because the magnitude of the effects of allosteric enhancers on CHO:huA1 cells changed subtly with passage number and differed slightly among different aliquots of cells, the actions of the test compounds and the action of a reference compound (PD 81,723) were assessed in each experiment. The effect of each test compound on cAMP content is presented in Table 1 as a percentage of the value of cAMP content in the absence of drug (control, 100%). Each value is a mean±standard error of 6 determinations in each of the number of experiments indicated in the “n” column of the table.

SMILES | inhibition at 0.01 µM (0.01 μM test compound) [%] | inhibition at 0.1 µM (0.1 μM test compound) [%] | inhibition at 1 µM (1 μM test compound) [%] | inhibition at 10 µM (10 μM test compound) [%] | Change in cAMP Content from Control (mean + SEM) (0.01 μM test compound) [%] | Change in cAMP Content from Control (mean + SEM) (0.1 μM test compound) [%] | Change in cAMP Content from Control (mean + SEM) (1 μM test compound) [%] | Change in cAMP Content from Control (mean + SEM) (10 μM test compound) [%]
Nc1sc2c(c1C(=O)c1ccc(I)c3ccccc13)CCC2 [Example 24, (2-Amino-1,6-dihydro-4H-cyclopenta[b]thiophen-3-yl)-(4-iodonaphthalen-1-yl)-methanone] | 6 ± 3 | 8 ± 3 | 22 ± 4 | 75 ± 1 | – | – | – | –
Nc1sc2c(c1C(=O)c1ccc(Cl)c3ccccc13)CCC2 [Example 25, (2-Amino-5,6-dihydro-4H-cyclopenta[b]thiophen-3-yl)-(4-chloronaph-thalen-1-yl)-methanone] | – | – | – | – | −10 ± 2 | −15 ± 4 | −27 ± 2 | −55 ± 2
Nc1sc2c(c1C(=O)c1ccc(I)c3ccccc13)CCCC2 [Example 26, (2-Amino-4,5,6,7-tetrahydrobenzo[b]thiophen-3-yl)-(4-iodonaphthalen-1-yl)-methanone] | 3 ± 4 | 4 ± 4 | 24 ± 5 | 67 ± 2 | – | – | – | –
COc1ccc(C(=O)c2c(N)sc3c2CCCC3)c2ccccc12 [Example 27, (2-Amino-4,5,6,7-tetrahydrobenzo[b]thiophen-3-yl)-(4-methoxynaph-thalen-1-yl)-methanone] | – | – | – | – | 5 ± 4 | −5 ± 4 | −3 ± 3 | −17 ± 1
Nc1sc2c(c1C(=O)c1ccc3ccccc3c1)CCN(Cc1ccccc1)C2 [Example 32, (2-Amino-6-benzyl-4,5,6,7-tetrahydrothieno[2,3-c]pyridin-3-yl)-naphthalen-2-yl-methanone] | 11 ± 4 | 12 ± 3 | 18 ± 3 | 60 ± 4 | – | – | – | –
Cc1sc(N)c(C(=O)c2ccc3ccccc3c2)c1C [Example 33, (2-Amino-4,5-dimethylthiophen-3-yl)-naphthalen-2-yl-methanone] | 1 ± 3 | 4 ± 3 | 8 ± 3 | 28 ± 3 | – | – | – | –
Cc1sc(N)c(C(=O)c2cccc(C(F)(F)F)c2)c1C [PD 81,723, reference compound] | – | – | – | – | −1 ± 2 | −7 ± 2 | −13 ± 1 | −50 ± 1

Results, then the compound that gave them:

inhibition at 0.01 µM (0.01 μM test compound) [%] | inhibition at 0.1 µM (0.1 μM test compound) [%] | inhibition at 1 µM (1 μM test compound) [%] | inhibition at 10 µM (10 μM test compound) [%] | Change in cAMP Content from Control (mean + SEM) (0.01 μM test compound) [%] | Change in cAMP Content from Control (mean + SEM) (0.1 μM test compound) [%] | Change in cAMP Content from Control (mean + SEM) (1 μM test compound) [%] | Change in cAMP Content from Control (mean + SEM) (10 μM test compound) [%] | SMILES
11 ± 3 | -3 ± 3 | 25 ± 4 | 44 ± 2 | – | – | – | – | Nc1sc2c(c1C(=O)c1ccc(Cl)c3ccccc13)CCCC2 [Example 28, (2-Amino-4,5,6,7-tetrahydrobenzo[b]thiophen-3-yl)-(4-chloronaphthalen-1-yl)-methanone]
6 ± 3 | 10 ± 2 | 29 ± 2 | 72 ± 1 | – | – | – | – | Nc1sc2c(c1C(=O)c1ccc(Br)c3ccccc13)CCCC2 [Example 29, (2-Amino-4,5,6,7-tetrahydrobenzo[b]thiophen-3-yl)-(4-bromonaphthalen-1-yl)-methanone]
13 ± 4 | 24 ± 3 | 28 ± 2 | 42 ± 3 | – | – | – | – | Nc1sc2c(c1C(=O)c1ccc3ccccc3c1)CCCC2 [Example 30, (2-Amino-4,5,6,7-tetrahydrobenzo[b]thiophen-3-yl)-naphthalen-2-yl-methanone]
19 ± 3 | 14 ± 4 | 15 ± 3 | 51 ± 3 | – | – | – | – | Nc1sc2c(c1C(=O)c1ccc3ccccc3c1)CCC2 [Example 31, (2-Amino-5,6-dihydro-4H-cyclopenta[b]thiophen-3-yl)-naphthalen-2-yl-methanone]
